US20260263616A1, “NOVEL HE[…] USE THEREOF” (PINOTBIO, INC., priority 2023, published 2026)
Square brackets hold non-standard residues; d marks the D form. Peptide text beside a SMILES is read from it. * marks the point of attachment. Dolaproine = CO[C@@H]([C@@H]1CCCN1)[C@@H](C)C(=O)O; Dil = CC[C@H](C)[C@H](NC)[C@@H](CC(=O)O)OC; X1 = C[C@@H](N*)[C@@H](O)c1ccccc1; NMeV = CN[C@H](C(=O)O)C(C)C

Assays:
[1] = test system: lung cancer cell line (A549); experiment: Cell viability assay (CellTiter-Glo), A549; type: cell-based; settings: for IC50: A549 cells, 3 days incubation, CellTiter-Glo luminescence, 50% of untreated control
Method: (§1) FaDu or A549 cell lines were seeded into 96-well plates at a density of 3,000 cells per well and incubated at 37° C., 5% CO2. After 24 hours, 100 μL of drug at 9 concentrations (from 1000 nM, serially diluted 1/5) was added to the cell line. As the drugs, the compound of Chemical Formula 2 prepared according to Example 1, SC209 (MedChemExpress), and MMAE were treated, and at this time, a control group (drug concentration 0) without drug treatment was also prepared. After incubation under incubator conditions (37° C., 5% CO2) for 3 days, 100 µL of
(§2) CellTiter-Glo reagent (using CellTiter-Glo® Luminescent Cell Viability Assay kit (Promega, G7571)) was added to each well of the plate, followed by pipetting. After incubation for 10 minutes (RT), luminescence was measured, and when the luminescence value at drug concentration 0 is regarded as 100%, the concentration showing 50% luminescence value is the IC50 value.

[2] = test system: head and neck squamous cell carcinoma cell line (FaDu); experiment: Cell viability assay (CellTiter-Glo), FaDu; type: cell-based; settings: for IC50: FaDu cells, 3 days incubation, CellTiter-Glo luminescence, 50% of untreated control
Method: as §1, §2

Row | Compound | IC50 ([1]; Homo sapiens, 72 h) [nM] | cell viability compared with SC209 and MMAE ([1]; lung cancer cell line (printed A529), 3 days treatment) | cell viability compared with SC209 and MMAE ([2]; FaDu cell line, 3 days treatment) | IC50 ([2]; Homo sapiens, 72 h) [nM] | IC50 [1] [nM] | IC50 [2] [nM]
1 | CN[C@H](C(=O)N[C@H](C(=O)N(C)[C@H](/C=C(\C)C(=O)O)C(C)C)C(C)(C)C)C(C)(C)c1ccc(OC)c(N)c1 [Compound of Chemical Formula 2] | 22.6 | decreased to a level similar to that observed with SC209 and MMAE treatment | decreased to a level similar to that observed with SC209 and MMAE treatment | 6.17 |  | 
2 | CC[C@H](C)[C@@H]([C@@H](CC(=O)N1CCC[C@H]1[C@H](OC)[C@@H](C)C(=O)N[C@H](C)[C@@H](O)c1ccccc1)OC)N(C)C(=O)[C@@H](NC(=O)[C@@H](NC)C(C)C)C(C)C [MMAE, reference compound] (H-[NMeV]V[Dil][Dolaproine]-X1) |  |  |  |  | 3.72 | 1.57
